Measured values as given in ChEMBL document CHEMBL2074412, “Cloning of the human kidney PAH transporter: narrow substrate specificity and regulation by protein kinase C” (Am J Physiol, 1999).

Legend:
Format in all cases: functional, cell-based
[1] = molecular target: T1, Solute carrier family 22 member 6 (Homo sapiens, UniProt Q4U2R8); assay: TP_TRANSPORTER: inhibition of PAH uptake (alpha,-KG: 200 uM) in OAT1-expressing HeLa cells
T1 sequence (Q4U2R8 whole entry): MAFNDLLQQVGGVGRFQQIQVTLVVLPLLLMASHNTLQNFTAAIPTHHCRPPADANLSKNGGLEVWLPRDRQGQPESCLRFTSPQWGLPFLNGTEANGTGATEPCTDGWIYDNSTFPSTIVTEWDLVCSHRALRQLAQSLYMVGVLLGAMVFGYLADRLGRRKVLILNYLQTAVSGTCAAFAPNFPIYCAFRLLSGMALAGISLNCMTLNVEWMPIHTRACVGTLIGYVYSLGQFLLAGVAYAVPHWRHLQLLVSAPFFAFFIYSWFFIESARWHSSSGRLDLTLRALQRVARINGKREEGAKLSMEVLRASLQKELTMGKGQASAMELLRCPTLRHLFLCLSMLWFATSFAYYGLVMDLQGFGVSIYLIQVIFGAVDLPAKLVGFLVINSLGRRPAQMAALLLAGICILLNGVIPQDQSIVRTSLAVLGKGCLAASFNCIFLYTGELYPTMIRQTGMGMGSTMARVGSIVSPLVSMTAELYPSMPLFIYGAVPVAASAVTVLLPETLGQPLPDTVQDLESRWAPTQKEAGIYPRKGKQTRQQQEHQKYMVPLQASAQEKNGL

[2] = molecular target: T1, Solute carrier family 22 member 6; assay: TP_TRANSPORTER: uptake in OAT1-expressing HeLa cells
[3] = molecular target: T1, Solute carrier family 22 member 6; assay: TP_TRANSPORTER: inhibition of PAH uptake (Anandamide: 100 uM) in OAT1-expressing HeLa cells
[4] = molecular target: T1, Solute carrier family 22 member 6; assay: TP_TRANSPORTER: inhibition of PAH uptake (PAH: 0.4 uM, Phenylbutazone: 200 uM) in OAT1-expressing HeLa cells
[5] = molecular target: T1, Solute carrier family 22 member 6; assay: TP_TRANSPORTER: inhibition of PAH uptake (Indomethacin: 200 uM) in OAT1-expressing HeLa cells
[6] = molecular target: T1, Solute carrier family 22 member 6; assay: TP_TRANSPORTER: inhibition of PAH uptake (Furosemide: 200 uM) in OAT1-expressing HeLa cells

O=C(O)CCC(=O)C(=O)O [ALPHA-KETOGLUTARIC ACID] was tested, and the Activity [1] was “inhibitor [(at a rough estimate) 35 % of control]” and the Activity [2] was “substrate [+]”.
For CCCCC/C=C\C/C=C\C/C=C\C/C=C\CCCC(=O)NCCO [ANANDAMIDE], the Activity [3] was “is not an inhibitor [-]”.
With O=C1OC2(c3ccc(O)cc3Oc3cc(O)ccc32)c2ccccc21 [FLUORESCEIN] the Activity [4] was “inhibitor [(at a rough estimate) 20 % of control]”.
In the case of COc1ccc2c(c1)c(CC(=O)O)c(C)n2C(=O)c1ccc(Cl)cc1 [INDOMETHACIN], the Activity [5] is reported as “inhibitor [(at a rough estimate) 20 % of control]”.
In the case of NS(=O)(=O)c1cc(C(=O)O)c(NCc2ccco2)cc1Cl [FUROSEMIDE], the Activity [6] is reported as “inhibitor [(at a rough estimate) 50 % of control]”.
